Data published in PMC10482301 (PLOS Neglected Tropical Diseases, 2023).

Assays:
[1] = target: T1, UDP-glucose 6-dehydrogenase (HsUGDH) (Homo sapiens, UniProt O60701); experiment: spectrophotometric assay, helper enzyme inhibited (no numbers shown); assay type: biochemical
T1 construct: gene UGDH; recombinant HsUGDH with N-terminal Strep-tag and four-residue linker
T1 sequence (O60701 1-494): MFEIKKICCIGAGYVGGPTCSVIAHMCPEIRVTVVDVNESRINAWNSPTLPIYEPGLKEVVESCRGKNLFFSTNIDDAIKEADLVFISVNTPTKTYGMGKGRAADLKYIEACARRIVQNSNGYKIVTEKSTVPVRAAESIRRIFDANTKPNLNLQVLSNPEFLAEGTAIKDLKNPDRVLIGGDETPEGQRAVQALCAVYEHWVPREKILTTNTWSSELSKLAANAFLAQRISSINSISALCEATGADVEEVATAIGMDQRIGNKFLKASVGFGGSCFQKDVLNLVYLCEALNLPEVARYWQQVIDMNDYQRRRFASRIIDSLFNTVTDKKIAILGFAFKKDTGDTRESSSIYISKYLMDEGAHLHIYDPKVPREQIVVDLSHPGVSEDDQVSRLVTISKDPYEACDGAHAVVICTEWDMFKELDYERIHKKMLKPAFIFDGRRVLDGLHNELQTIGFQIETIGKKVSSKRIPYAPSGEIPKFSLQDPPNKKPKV

[2] = target: T2, UDP-glucose 4-epimerase (EhGalE) (Entamoeba histolytica, UniProt C4M746); experiment: RP-HPLC of UDP-Gal to UDP-Glc conversion by purified recombinant enzyme after […] min preincubation; assay type: biochemical
T2 construct: gene EHI_192050; full-length recombinant EhGalE (XP_650346) with N-terminal Strep-tag and Gly-Gly-Gly-Ser linker
T2 sequence (C4M746 1-341): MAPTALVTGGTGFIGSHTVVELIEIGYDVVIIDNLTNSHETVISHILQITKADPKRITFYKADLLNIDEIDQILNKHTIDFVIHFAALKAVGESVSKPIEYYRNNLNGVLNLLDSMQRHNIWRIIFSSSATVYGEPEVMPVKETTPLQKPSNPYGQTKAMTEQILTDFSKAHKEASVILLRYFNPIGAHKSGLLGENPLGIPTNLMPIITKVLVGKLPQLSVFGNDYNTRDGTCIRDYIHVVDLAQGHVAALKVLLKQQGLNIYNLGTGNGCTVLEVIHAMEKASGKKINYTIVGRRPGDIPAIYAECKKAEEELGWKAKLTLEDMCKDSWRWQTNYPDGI

## CC/C(=C(/CC)c1ccc(O)cc1)c1ccc(O)cc1 [diethylstilbestrol]
[1]
  spectrophotometric assay, helper enzyme inhibited (no numbers shown): the helper enzyme UGDH was inhibited by all three compounds

## O=c1c2ccccc2[se]n1-c1ccccc1 [ebselen]
[1]
  spectrophotometric assay, helper enzyme inhibited (no numbers shown): the helper enzyme UGDH was inhibited by all three compounds
[2]
  IC50: 2190 nM

## C=C(CC)C(=O)c1ccc(OCC(=O)O)c(Cl)c1Cl [ethacrynic acid]
[1]
  spectrophotometric assay, helper enzyme inhibited (no numbers shown): the helper enzyme UGDH was inhibited by all three compounds
